In paper PMC11799985 (ACS Omega, 2024):
Values joined by “and” are separate entries in the source; they are usually repeats but may differ in a detail not shown here. Equal entries are not always repeated. “Also recorded” adds a separate entry of the source. Where two headings read alike, the source gives them in different places.

Legend:
T. cruzi epimastigote = test system: T. cruzi epimastigote; set-up: method as in PMID 26014945, PMID 29357372, PMID 28241112, PMID 19937668, PMID 19060927; settings: cited from earlier work
TcSir2rp3 = test system: TcSir2rp3; set-up: method as in PMID 26014945, PMID 29357372, PMID 28241112, PMID 19937668, PMID 19060927; settings: cited from earlier work
T. cruzi = test system: T. cruzi; set-up: method as in PMID 34936867; settings: T. cruzi-infected mice; cited from earlier work
T. cruzi amastigote = test system: T. cruzi amastigote; set-up: method as in PMID 26014945, PMID 29357372, PMID 28241112, PMID 19937668, PMID 19060927; settings: cited from earlier work
L. donovani amastigote = test system: L. donovani amastigote; set-up: method as in PMID 26014945, PMID 29357372, PMID 28241112, PMID 19937668, PMID 19060927; settings: cited from earlier work
TbSir2rp1 [1] = molecular target: T1, TbSir2rp1 (Trypanosoma brucei brucei, UniProt Q57V41); assay: biochemical; type: biochemical
T1 construct: The TbSir2rp1 gene was cloned into the pET24(+) expression plasmid (Novagen); His tag; made in house; host or cells: Escherichia coli BL21-Codon Plus (DE3)-RIL
T1 sequence (Q57V41 1-351): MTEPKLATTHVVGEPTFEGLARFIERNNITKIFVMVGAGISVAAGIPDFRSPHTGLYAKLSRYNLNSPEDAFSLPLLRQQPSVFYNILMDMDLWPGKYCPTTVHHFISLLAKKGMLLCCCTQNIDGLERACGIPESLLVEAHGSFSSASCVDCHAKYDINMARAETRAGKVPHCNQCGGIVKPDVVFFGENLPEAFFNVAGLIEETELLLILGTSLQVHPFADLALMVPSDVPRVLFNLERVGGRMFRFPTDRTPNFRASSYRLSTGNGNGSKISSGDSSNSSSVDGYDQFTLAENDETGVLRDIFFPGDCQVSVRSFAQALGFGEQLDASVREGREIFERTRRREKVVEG

LiSir2rp1 = test system: LiSir2rp1; set-up: method as in PMID 26014945, PMID 29357372, PMID 28241112, PMID 19937668, PMID 19060927; settings: cited from earlier work
L. infantum amastigote = test system: L. infantum amastigote; set-up: method as in PMID 26014945, PMID 29357372, PMID 28241112, PMID 19937668, PMID 19060927; settings: cited from earlier work
[2] = test system: human lung cells (WI-26VA-4); set-up: method as in PMID 33295837; settings: WI-26VA-4 human lung cells; cited from earlier work
TbSir2rp1 [3] = molecular target: T1, TbSir2rp1; assay: biochemical; settings: for ligand efficiency (LE): LE = –R·T·ln(IC50)/HAC, from TbSir2rp1 IC50; for IC50: TbSir2rp1, enzyme 1 μM, NAD+ 100 μM, acetylated peptide 50 μM, 37 °C, 2 h, read-out: IC50; for Hill coefficient (nH): concentration–response curve against TbSir2rp1
Experimental: The acetylated peptide corresponds to the sequence Abz-Gly-Pro-acetylLys-SerGln–EDDnp, where Abz is ortho-aminobenzoic acid and EDDnp is N-[2,4-dinitrophenyl]ethylenediamine.
To halt the deacetylation reaction, 4 mM nicotinamide was used. For each pair of wells in the 96-well plate, 0.2 mg/mL of trypsin was added to only one well to hydrolyze the acetylated peptide, enabling fluorescence emission. Fluorescence was measured immediately at 420 nm with excitation at 320 nm using a SpectraMax M2 microplate reader (Molecular Devices).
Deacetylation activity was determined by the difference between the well where trypsin was added and the well without trypsin. All assays were performed in triplicate, and activity values were reported as means ± standard deviations with outliers identified and excluded from the calculations. Statistical analyses were conducted using Prism 7 software (GraphPad).
The screening of the 90 fragments was performed at a single concentration of 500 μM in triplicate. The enzyme was used at 1 μM, and the substrates NAD^+ and acetylated peptide were used at 100 and 50 μM, respectively. Incubation was carried out at 37.0 °C for 2 h. Each fragment was added to a pair of wells, with trypsin being added to only one well, as previously described for inhibitory activity calculation. […] Ligand efficiency (LE) was calculated as LE = –R·T·ln(IC50)/HAC using IC50 values instead of KD for comparison. […] The inhibition mechanism was characterized using Lineweaver–Burk plots under five concentrations of each substrate and three concentrations of the fragment. IC50 values were determined with at least seven different concentrations, and Lineweaver–Burk analysis used six concentrations.

T. brucei = test system: T. brucei; set-up: method as in PMID 7097719; settings: cited from earlier work
infected mice = settings: cited from earlier work
[4] = read-out: % Inhibition TbSir2rp1, Table S2, complete fragment library, single concentration of 500 μM
[5] = read-out: % Inhibition TbSir2rp1 at 500 μM, Table 1, fragment 500 μM, triplicate, mean ± SD

CC(C(=O)Nc1cccc(/N=C/c2c(O)ccc3ccccc23)c1)c1ccccc1 (stereo not drawn) [salermide]
EC50 (T. cruzi epimastigote): 10.6 µM | IC50 (TcSir2rp3): 1 µM

O=C(/C=C/c1cccc2c1oc1ccccc12)NO [TB56]
parasite burden (T. cruzi): reduced parasite burden

O=C1c2cccc3cccc(c23)C(=O)N1CCCNCCCCNCCCNCCCN1C(=O)c2cccc3cccc(c23)C1=O [BNIPSpd]
EC50 (T. cruzi epimastigote): 13.3 µM | EC50 (T. cruzi amastigote): 2.8 µM

O=c1[nH]c(=S)[nH]c(-c2ccccc2)c1Cc1c(O)ccc2ccccc12 [cambinol]
EC50 (L. donovani amastigote): 1.7 µM

Cc1cc(C)nc(NS(=O)(=O)c2ccc(N)cc2)n1 [sulfamethazine]
% inhibition at 100 µM (TbSir2rp1 [1]; Table S3, sulfonyl-hydrazone series, single concentration of 100 μM): Inconc.

CC(NC(=O)c1ccccc1/N=C/c1c(O)ccc2ccccc12)c1ccccc1 (stereo not drawn) [sirtinol]
EC50 (L. donovani amastigote): 5 µM | IC50 (LiSir2rp1): 194 µM | EC50 (L. infantum amastigote): 30 µM

Cc1ccc(S(=O)(=O)N/N=C/c2cccs2)cc1 [Fragment 2]
CC50 [2]: 226 µM | ligand efficiency (LE) (TbSir2rp1 [3]): 0.31 | IC50 (TbSir2rp1 [3]): < 100 µM and 77.9 µM | Hill coefficient (nH) (TbSir2rp1 [3]): 0.77 | inhibition at 500 µM (TbSir2rp1 [3]; [4]): 84 ± 2.3% | inhibition at 500 µM (TbSir2rp1 [3]; [5]): 83.7 ± 2.3%

Cc1ccc(S(=O)(=O)n2ncc3ccccc32)cc1 [CC1=CC=C(S(N2N=CC3=C2C=CC=C3)(=O)=O)C=C1]
inhibition at 500 µM (TbSir2rp1 [3]; [4]): 4 ± 30%

Cc1c(O)c2ccccc2c2nc(N)sc12 [Fragment 1]
minimum lytic concentration (T. brucei): 100 µM | ligand efficiency (LE) (TbSir2rp1 [3]): 0.41 | IC50 (TbSir2rp1 [3]): 17.8 µM | Hill coefficient (nH) (TbSir2rp1 [3]): 1.22 | inhibition at 500 µM (TbSir2rp1 [3]; [4]): 99 ± 0.47% | inhibition at 500 µM (TbSir2rp1 [3]; [5]): 99 ± 0.5% | maximum tolerated dose (infected mice): 50 mg/kg

CC1(C)CCC2=C(O1)c1ccccc1C(=O)C2=O [O=C1C2=C(OC(C)(C)CC2)C3=CC=CC=C3C1=O]
inhibition at 500 µM (TbSir2rp1 [3]; [4]): 43 ± 5.2%

CCC1(c2ccccc2)C(=O)NC(=O)NC1=O [O=C(NC(C1(CC)C2=CC=CC=C2)=O)NC1=O]
inhibition at 500 µM (TbSir2rp1 [3]; [4]): 2.7 ± 1.6%

Cc1cc(NS(=O)(=O)c2ccc(N)cc2)no1 [sulfamethoxazole, reference compound]
inhibition at 100 µM (TbSir2rp1 [1]; read-out: % inhibition at 100 µM, Table S3, sulfonyl-hydrazone series, single concentration of 100 μM): 2 ± 5.3% | inhibition of TbSir2rp1 (in words) (TbSir2rp1 [3]): did not induce any inhibition

CC(=O)Nc1ccccc1 [CC(NC1=CC=CC=C1)=O]
inhibition at 500 µM (TbSir2rp1 [3]; [4]): 7.7 ± 21%

CN1C(=O)CN=C(c2ccccc2)c2cc(Cl)ccc21
inhibition at 500 µM (TbSir2rp1 [3]; [4]): 37 ± 2.2%

CC(C)[C@@H]1CC[C@@H](C)CC1O (stereo partly drawn) [OC1[C@H](C(C)C)CC[C@@H](C)C1]
inhibition at 500 µM (TbSir2rp1 [3]; [4]): 22 ± 5%

c1ccc(C2CN3CCSC3=N2)cc1 (stereo not drawn) [C12=NC(C3=CC=CC=C3)CN1CCS2]
inhibition at 500 µM (TbSir2rp1 [3]; [4]): 10 ± 1.4%

Nc1ccc(C(=O)c2ccccc2)cc1 [Fragment 1.2]
ligand efficiency (LE) (TbSir2rp1 [3]): 0.37 | IC50 (TbSir2rp1 [3]): 80.9 µM | Hill coefficient (nH) (TbSir2rp1 [3]): 0.72 | inhibition mechanism (Lineweaver–Burk plot) (TbSir2rp1 [3]; for both substrates, acetylated peptide and NAD+): competitive

N=C(N)N/N=C/c1cccs1 [Fragment 10]
inhibition at 500 µM (TbSir2rp1 [3]; [4]): 56 ± 4.9% | inhibition at 500 µM (TbSir2rp1 [3]; [5]): 55.7 ± 4.9%

O=C(NNc1ccccc1)NNc1ccccc1 [O=C(NNC1=CC=CC=C1)NNC2=CC=CC=C2]
inhibition at 500 µM (TbSir2rp1 [3]; [4]): 48 ± 1.8%

Cc1ccc(S(=O)(=O)NN)cc1 [NNS(C1=CC=C(C)C=C1)(=O)=O]
inhibition at 500 µM (TbSir2rp1 [3]; [4]): 53 ± 5.2%

O=c1ccc2ccccc2[nH]1 [Fragment 6]
ligand efficiency (LE) (TbSir2rp1 [3]): 0.41 | Hill coefficient (nH) (TbSir2rp1 [3]): 1.19 | inhibition at 500 µM (TbSir2rp1 [3]; [4]): 60 ± 5.5% | inhibition at 500 µM (TbSir2rp1 [3]; [5]): 59.7 ± 5.5%

O=C(/C=C/c1ccccc1Cl)c1ccc2c(c1)OCO2 [Fragment 12]
inhibition at 500 µM (TbSir2rp1 [3]; [4]): 102 ± 5.9% | inhibition at 500 µM (TbSir2rp1 [3]; [5]): 102 ± 5.9%

O=C1NCCn2cccc21 [O=C1C2=CC=CN2CCN1]
inhibition at 500 µM (TbSir2rp1 [3]; [4]): -35 ± 5%

CCOc1ccc2nc(N)sc2c1 [Fragment 1.4]
inhibition of TbSir2rp1 (in words) (TbSir2rp1 [3]): did not inhibit; also recorded: No inhibition

NNC(=O)Cc1cccnc1 [O=C(NN)CC1=CN=CC=C1]
inhibition at 500 µM (TbSir2rp1 [3]; [4]): 2.3 ± 22%

Clc1cc2cn[nH]c2cn1 [Fragment 7]
inhibition at 500 µM (TbSir2rp1 [3]; [4]): 61 ± 9.1% | inhibition at 500 µM (TbSir2rp1 [3]; [5]): 60.6 ± 9.1%

O=C1Nc2ccccc2C1=O [O=C1NC2=C(C=CC=C2)C1=O]
inhibition at 500 µM (TbSir2rp1 [3]; [4]): 49 ± 0.31%

Cc1cc(Cl)ncc1N [ClC1=NC=C(N)C(C)=C1]
inhibition at 500 µM (TbSir2rp1 [3]; [4]): 8.8 ± 19%

C1CN2CCN1CC2 [N1(CC2)CCN2CC1]
inhibition at 500 µM (TbSir2rp1 [3]; [4]): 2.7 ± 2.6%

Cn1c(=O)c2[nH]cnc2n(C)c1=O [O=C(N1C)N(C)C2=C(NC=N2)C1=O]
inhibition at 500 µM (TbSir2rp1 [3]; [4]): -2.1 ± 3%

Cc1ccc(S(=O)(=O)n2cccc2)cc1 [O=S(N1C=CC=C1)(C2=CC=C(C)C=C2)=O]
inhibition at 500 µM (TbSir2rp1 [3]; [4]): -22 ± 5.8%

O=c1[nH]nc(-c2ccccc2)[nH]1 [O=C1NC(C2=CC=CC=C2)=NN1]
inhibition at 500 µM (TbSir2rp1 [3]; [4]): 0.91 ± 7.3%

Nc1ccc(Nc2ccccc2)cc1 [Fragment 1.5]
IC50 (TbSir2rp1 [3]): > 500 µM

O=C1C(O)=C(Nc2ccccc2)C(=O)c2ccccc21 [Fragment 13]
inhibition at 500 µM (TbSir2rp1 [3]; [4]): 95 ± 4.9% | inhibition at 500 µM (TbSir2rp1 [3]; [5]): 95.3 ± 4.9%
